Data taken from patent US11180474B2 (BRISTOL-MYERS SQUIBB COMPANY, priority 2016, dated 2021).

How the values were obtained:
human TLR9 = biological target: T1, human TLR9 (Homo sapiens, UniProt Q9NR96); experiment: TLR9 inhibition reporter assay (HEK-Blue cells, SEAP reporter, ODN2006 stimulation); format: cell-based; details: HEK-Blue cells overexpressing human TLR9, ODN2006 5 nM
T1 construct: host or cells: HEK-Blue cells
T1 sequence (Q9NR96 26-1032): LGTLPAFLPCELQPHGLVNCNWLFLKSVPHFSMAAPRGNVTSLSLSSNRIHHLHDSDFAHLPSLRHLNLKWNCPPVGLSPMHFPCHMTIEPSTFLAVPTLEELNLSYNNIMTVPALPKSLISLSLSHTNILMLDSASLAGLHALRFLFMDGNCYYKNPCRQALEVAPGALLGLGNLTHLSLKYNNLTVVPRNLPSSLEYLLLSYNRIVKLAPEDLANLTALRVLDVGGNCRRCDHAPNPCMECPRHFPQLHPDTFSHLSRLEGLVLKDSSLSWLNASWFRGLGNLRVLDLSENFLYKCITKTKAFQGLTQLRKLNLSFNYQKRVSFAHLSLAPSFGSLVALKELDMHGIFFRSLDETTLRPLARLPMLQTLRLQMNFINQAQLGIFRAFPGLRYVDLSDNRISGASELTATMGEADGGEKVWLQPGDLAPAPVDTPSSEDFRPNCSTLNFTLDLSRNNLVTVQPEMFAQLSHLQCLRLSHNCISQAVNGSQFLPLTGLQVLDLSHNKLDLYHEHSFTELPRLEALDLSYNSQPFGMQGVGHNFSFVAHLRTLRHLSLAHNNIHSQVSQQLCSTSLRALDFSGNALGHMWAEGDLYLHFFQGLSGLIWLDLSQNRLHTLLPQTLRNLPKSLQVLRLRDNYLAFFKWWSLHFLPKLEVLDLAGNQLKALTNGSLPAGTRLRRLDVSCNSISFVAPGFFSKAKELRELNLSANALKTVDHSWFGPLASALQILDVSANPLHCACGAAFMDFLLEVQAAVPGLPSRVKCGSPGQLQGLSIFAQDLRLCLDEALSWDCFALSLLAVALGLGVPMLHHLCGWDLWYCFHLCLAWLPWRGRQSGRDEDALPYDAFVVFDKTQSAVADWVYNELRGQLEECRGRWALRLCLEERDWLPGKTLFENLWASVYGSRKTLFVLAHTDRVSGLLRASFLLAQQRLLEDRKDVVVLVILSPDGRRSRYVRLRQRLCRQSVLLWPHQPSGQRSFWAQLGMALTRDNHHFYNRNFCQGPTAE
In short: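 HEK-Blue cells overexpressing human TLR7, TLR8 or TLR9 carry a SEAP reporter driven by NF-κB/AP-1 sites. Compounds (0.05 nM–50 μM) were preincubated 30 min at room temperature, then cells were stimulated with gardiquimod 7.5 μM (TLR7), R848 15.9 μM (TLR8) or ODN2006 5 nM (TLR9) for 22 h at 37 °C.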

human TLR7 = biological target: T2, human TLR7 (Homo sapiens, UniProt Q9NYK1); experiment: TLR7 inhibition reporter assay (HEK-Blue cells, SEAP reporter, gardiquimod stimulation); format: cell-based; details: HEK-Blue cells overexpressing human TLR7, gardiquimod 7.5 μM
T2 construct: host or cells: HEK-Blue cells
T2 sequence (Q9NYK1 27-1049): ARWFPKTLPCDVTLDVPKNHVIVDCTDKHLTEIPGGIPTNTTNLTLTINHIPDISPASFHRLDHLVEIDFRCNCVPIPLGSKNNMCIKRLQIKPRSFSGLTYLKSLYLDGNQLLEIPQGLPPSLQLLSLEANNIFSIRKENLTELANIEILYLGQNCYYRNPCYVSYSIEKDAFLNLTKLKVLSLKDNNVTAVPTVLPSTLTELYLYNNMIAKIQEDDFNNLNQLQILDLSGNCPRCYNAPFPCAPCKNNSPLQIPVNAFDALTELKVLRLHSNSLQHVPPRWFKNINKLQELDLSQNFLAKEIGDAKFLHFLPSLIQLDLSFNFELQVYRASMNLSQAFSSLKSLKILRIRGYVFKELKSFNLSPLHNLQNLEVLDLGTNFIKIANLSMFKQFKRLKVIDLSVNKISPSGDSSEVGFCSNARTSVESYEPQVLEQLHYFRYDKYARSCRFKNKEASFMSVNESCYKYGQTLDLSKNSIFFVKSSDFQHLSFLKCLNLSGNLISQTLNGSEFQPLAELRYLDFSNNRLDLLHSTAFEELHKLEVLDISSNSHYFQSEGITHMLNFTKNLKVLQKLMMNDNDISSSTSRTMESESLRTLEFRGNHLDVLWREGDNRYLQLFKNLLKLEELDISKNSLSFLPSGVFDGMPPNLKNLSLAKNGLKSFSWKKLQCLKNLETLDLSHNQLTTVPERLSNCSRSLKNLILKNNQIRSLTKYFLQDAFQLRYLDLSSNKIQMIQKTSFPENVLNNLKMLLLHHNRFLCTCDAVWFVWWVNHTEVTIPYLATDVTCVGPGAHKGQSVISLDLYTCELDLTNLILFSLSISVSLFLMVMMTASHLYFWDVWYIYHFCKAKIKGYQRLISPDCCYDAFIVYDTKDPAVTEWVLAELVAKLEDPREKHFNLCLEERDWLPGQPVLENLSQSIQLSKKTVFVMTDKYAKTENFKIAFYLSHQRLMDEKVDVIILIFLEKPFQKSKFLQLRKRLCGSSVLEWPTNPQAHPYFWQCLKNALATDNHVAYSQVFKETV
In short: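 SEAP readout via HEK-Blue Detection medium after 22 h at 37 °C, 5% CO2 defines inhibition, normalized between agonist-plus-DMSO wells and a reference inhibitor. Compound dose range 0.05 nM–50 μM; TLR7 cells at 15,000/well (gardiquimod), TLR8 at 20,000/well (R848).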

IC50 (human TLR9) [nM]	IC50 (human TLR7) [nM]	Compound
288	9	COc1ccc(-c2[nH]c3ccc(C4CCN(CC(=O)NCCCCN5CCCC5)CC4)cc3c2CC(F)(F)F)cc1OC [Example 388, 2-(4-(2-(3,4-dimethoxyphenyl)-3-(2,2,2-trifluoroethyl)-1H-indol-5-yl)piperidin-1-yl)-N-(4-(pyrrolidin-1-yl)butyl)acetamide]
15300	413	COc1ccc(-c2[nH]c3ccc(C4CCN(C(=O)CCc5cccnc5)CC4)cc3c2CC(F)(F)F)cc1OC [Example 348, 1-(4-(2-(3,4-dimethoxyphenyl)-3-(2,2,2-trifluoroethyl)-1H-indol-5-yl)piperidin-1-yl)-3-(pyridin-3-yl) propan-1-one]
268	8	COc1ccc(-c2[nH]c3ccc(C4CCN(CC(=O)N5CCC(N6CCN(C)CC6)CC5)CC4)cc3c2CC(F)(F)F)cc1OC [Example 363, 2-(4-(2-(3,4-dimethoxyphenyl)-3-(2,2,2-trifluoroethyl)-1H-indol-5-yl)piperidin-1-yl)-1-(4-(4-methylpiperazin-1-yl)piperidin-1-yl) ethan-1-one]
26400	240	COc1ccc(-c2[nH]c3ccc(C4CCN(C(=O)Cc5cnccn5)CC4)cc3c2CC(F)(F)F)cc1OC [Example 342, 1-(4-(2-(3,4-dimethoxyphenyl)-3-(2,2,2-trifluoroethyl)-1H-indol-5-yl)piperidin-1-yl)-2-(pyrazin-2-yl)ethan-1-one]
2280	19	COc1ccc(-c2[nH]c3ccc(C4CCN(C)CC4)cc3c2CC(F)(F)F)cc1OC [Example 355, 2-(3,4-dimethoxyphenyl)-5-(1-methylpiperidin-4-yl)-3-(2,2,2-trifluoroethyl)-1H-indole]
914	22	COc1ccc(-c2[nH]c3ccc(C4CCN(C(=O)CCN(C)C)CC4)cc3c2CC(F)(F)F)cc1OC [Example 340, 1-(4-(2-(3,4-dimethoxyphenyl)-3-(2,2,2-trifluoroethyl)-1H-indol-5-yl)piperidin-1-yl)-3-(dimethylamino)propan-1-one]
15300	331	COc1ccc(-c2[nH]c3ccc(C4CCN(C(=O)Cc5cccnc5)CC4)cc3c2CC(F)(F)F)cc1OC [Example 335, 1-(4-(2-(3,4-dimethoxyphenyl)-3-(2,2,2-trifluoroethyl)-1H-indol-5-yl)piperidin-1-yl)-2-(pyridin-3-yl)ethan-1-one]
≥ 50000	881	COc1ccc(-c2[nH]c3ccc(C4CCN(C(=O)CCn5cccc5)CC4)cc3c2CC(F)(F)F)cc1OC [Example 344, 1-(4-(2-(3,4-dimethoxyphenyl)-3-(2,2,2-trifluoroethyl)-1H-indol-5-yl)piperidin-1-yl)-3-(1H-pyrrol-1-yl)propan-1-one]
9730	291	COc1ccc(-c2[nH]c3ccc(C4CCN(C(=O)COc5cccnc5)CC4)cc3c2CC(F)(F)F)cc1OC [Example 349, 1-(4-(2-(3,4-dimethoxyphenyl)-3-(2,2,2-trifluoroethyl)-1H-indol-5-yl)piperidin-1-yl)-2-(pyridin-3-yloxy)ethan-1-one]
2940	213	COc1ccc(-c2[nH]c3ccc(C4CCN(C(=O)CCC(=O)N(C)C)CC4)cc3c2CC(F)(F)F)cc1OC [Example 346, 4-(4-(2-(3,4-dimethoxyphenyl)-3-(2,2,2-trifluoroethyl)-1H-indol-5-yl)piperidin-1-yl)-N,N-dimethyl-4-oxobutanamide]
4500	22	COc1ccc(-c2[nH]c3ccc(C4CCNCC4F)cc3c2C(C)C)cc1OC (single isomer, unassigned) [Example 321, 2-(3,4-dimethoxyphenyl)-5-(3-fluoropiperidin-4-yl)-3-isopropyl-1H-indole]
14400	622	CCC(CC)NC(=O)CN1CCC(c2ccc3[nH]c(-c4ccc(OC)c(OC)c4)c(CC(F)(F)F)c3c2)CC1 [Example 378, 2-(4-(2-(3,4-dimethoxyphenyl)-3-(2,2,2-trifluoroethyl)-1H-indol-5-yl)piperidin-1-yl)-N-(pentan-3-yl)acetamide]
40800	174	COc1ccc(-c2[nH]c3ccc(C4CCN(C(=O)CCCNC(C)=O)CC4)cc3c2CC(F)(F)F)cc1OC [Example 343, N-(4-(4-(2-(3,4-dimethoxyphenyl)-3-(2,2,2-trifluoroethyl)-1H-indol-5-yl)piperidin-1-yl)-4-oxobutyl)acetamide]
≥ 50000	3570	COc1ccc(-c2[nH]c3ccc(C4CCN(C(=O)CCn5ccc6ccccc65)CC4)cc3c2CC(F)(F)F)cc1OC [Example 337, 1-(4-(2-(3,4-dimethoxyphenyl)-3-(2,2,2-trifluoroethyl)-1H-indol-5-yl)piperidin-1-yl)-3-(1H-indol-1-yl)propan-1-one]
1950	101	COc1ccc(-c2[nH]c3ccc(C4CCN(CC(=O)N5CCC(C(N)=O)CC5)CC4)cc3c2CC(F)(F)F)cc1OC [Example 369, 1-(2-(4-(2-(3,4-dimethoxyphenyl)-3-(2,2,2-trifluoroethyl)-1H-indol-5-yl)piperidin-1-yl)acetyl)piperidine-4-carboxamide]
≥ 50000	1860	COc1ccc(-c2[nH]c3ccc(C4CCN(C(=O)Cc5c[nH]c6ccccc56)CC4)cc3c2CC(F)(F)F)cc1OC [Example 332, 1-(4-(2-(3,4-dimethoxyphenyl)-3-(2,2,2-trifluoroethyl)-1H-indol-5-yl)piperidin-1-yl)-2-(1H-indol-3-yl)ethan-1-one]
28900	458	COc1ccc(-c2[nH]c3ccc(C4CCN(C(=O)C[C@H](C)O)CC4)cc3c2CC(F)(F)F)cc1OC [Example 352, (S)-1-(4-(2-(3,4-dimethoxyphenyl)-3-(2,2,2-trifluoroethyl)-1H-indol-5-yl)piperidin-1-yl)-3-hydroxybutan-1-one]
1330	159	COc1ccc(-c2[nH]c3ccc(C4CCN(CC(=O)N5CCN(c6ncccn6)CC5)CC4)cc3c2CC(F)(F)F)cc1OC [Example 368, 2-(4-(2-(3,4-dimethoxyphenyl)-3-(2,2,2-trifluoroethyl)-1H-indol-5-yl)piperidin-1-yl)-1-(4-(pyrimidin-2-yl)piperazin-1-yl)ethan-1-one]
